{"source": "patent US12037458B2", "about": "“Process and premix for incorporating optical brighteners into a polymeric composition” (Elkem Silicones USA Corp., priority 2019, dated 2024)", "key": {"[1]": {"assay": "Solubility of Tinopal OB CO in different silanes / titanate (room-temperature mixing, black light inspection)", "conditions": "for Forms a clear solution? / Amount of undissolved Tinopal ® OB CO: 0.072 g Tinopal OB CO in 10 g of compound; for Forms a clear solution?: mixed at room temperature, stored overnight; for Amount of undissolved Tinopal ® OB CO: room temperature; for # of particles observed: OBA particles, naked eye under black light; for Brightness: drop of mixture between glass plates under black light; for Solubility of Tinopal OB CO in the compound (in words): summary of Table 2"}, "[2]": {"assay": "Solubility of different optical brighteners in GLYMO, RT mixing (MM1)"}, "[3]": {"assay": "Solubility of different optical brighteners in GLYMO, heated mixing (MM2)", "type": "physicochemical", "conditions": "for # of particles observed MM2 / Amount of undissolved OBA MM2 / Brightness MM2 / Form a clear solution? Mixing Method 2: in GLYMO; for # of particles observed MM2 / Amount of undissolved OBA MM2 / Brightness MM2: heated mixing 50° C. (MM2); for Form a clear solution? Mixing Method 2: heated mixing 50° C. under nitrogen (MM2)"}, "[4]": {"assay": "Saturation of optical brightener in GLYMO", "type": "physicochemical", "experimental": "To determine the saturation level of optical brightener in GLYMO, increasing amounts of Tinopal® OB CO were mixed with GLYMO (0.25%, 0.5%, 1.0%, 2.0%, 3.0% Tinopal® OB CO), heated at 50° C. for one hour and then cooled while mixing."}, "[5]": {"conditions": "heated at 50° C. for one hour, cooled while mixing"}}}
{"smiles": "C=C(C)C(=O)OCCC[Si](OC)(OC)OC", "note": "[MEMO]", "values": [{"measurement": "Forms a clear solution?", "setting": "[1]", "value": "Yes"}, {"measurement": "Amount of undissolved Tinopal ® OB CO", "setting": "[1]", "value": "zero"}, {"measurement": "# of particles observed", "setting": "[1]", "value": 0}, {"measurement": "Brightness", "setting": "[1]", "value": "high"}, {"measurement": "Solubility of Tinopal OB CO in the compound (in words)", "setting": "[1]", "value": "relatively good solubility"}]}
{"smiles": "C=C[Si](OC)(OC)OC", "note": "[VTMO, vinyltrimethoxysilane]", "values": [{"measurement": "Forms a clear solution?", "setting": "[1]", "value": "Yes"}, {"measurement": "Amount of undissolved Tinopal ® OB CO", "setting": "[1]", "value": "low"}, {"measurement": "# of particles observed", "setting": "[1]", "value": 0}, {"measurement": "Brightness", "setting": "[1]", "value": "high"}, {"measurement": "Solubility of Tinopal OB CO in the compound (in words)", "setting": "[1]", "value": "relatively good solubility"}]}
{"smiles": "CC(C)(C)c1ccc2oc(-c3ccc(-c4nc5cc(C(C)(C)C)ccc5o4)s3)nc2c1", "note": "[Tinopal ® OB CO]", "values": [{"measurement": "Amount of undissolved OBA MM1", "setting": "[2]; in GLYMO, RT mixing (MM1)", "value": "low"}, {"measurement": "Amount of undissolved optical brightener", "setting": "[2]; in GLYMO, room temperature", "value": "low"}, {"measurement": "Effect of heating (MM2) on solubility in GLYMO", "setting": "[3]; MM2 versus MM1", "value": "improved the solubility"}, {"measurement": "# of particles observed MM2", "setting": "[3]", "value": "zero"}, {"measurement": "Amount of undissolved OBA MM2", "setting": "[3]", "value": "Zero"}, {"measurement": "Brightness MM2", "setting": "[3]", "value": "high"}, {"measurement": "Amount of undissolved OBA MM2", "setting": "[3]; listed as Tinopal® OB CO", "value": "no undissolved particles"}, {"measurement": "Form a clear solution? Mixing Method 2", "setting": "[3]", "value": "Yes"}, {"measurement": "Concentration in GLYMO at which homogenously distributed", "setting": "[4]; [5]", "value": "less than 1.0%"}, {"measurement": "Concentration in GLYMO at which visible particles (agglomerates) were present", "setting": "[4]; [5]", "value": "≥ 1.0", "unit": "%"}, {"measurement": "Average particle size of visible particles (agglomerates)", "setting": "[4]; in GLYMO at concentrations of 1.0% or greater", "value": "≥ 50", "unit": "μm"}]}
{"smiles": "C(=Cc1ccc(-c2nc3ccccc3o2)cc1)c1ccc(-c2nc3ccccc3o2)cc1", "note": "[Benetex ® OB-1 HP, benzoxazole, 2,2′-(1,2-ethenediyldi-4,1-phenylene)bis-]", "values": [{"measurement": "# of particles observed MM2", "setting": "[3]", "value": ">300"}, {"measurement": "Brightness MM2", "setting": "[3]", "value": "high"}, {"measurement": "Form a clear solution? Mixing Method 2", "setting": "[3]", "value": "no"}]}
{"smiles": "CCN(CC)c1nc(Nc2ccc(C=Cc3ccc(Nc4nc(Nc5cc(S(=O)(=O)[O-])ccc5S(=O)(=O)[O-])nc(N(CC)CC)n4)cc3S(=O)(=O)[O-])c(S(=O)(=O)[O-])c2)nc(Nc2cc(S(=O)(=O)[O-])ccc2S(=O)(=O)[O-])n1.[Na+].[Na+].[Na+].[Na+].[Na+].[Na+]", "note": "[Tinopal ® SFP]", "values": [{"measurement": "Forms a clear solution?", "setting": "[2]; 0.072 g optical brightener in 10 g GLYMO, room temperature", "value": "No"}, {"measurement": "# of particles observed MM1", "setting": "[2]; in GLYMO, RT mixing (MM1)", "value": ">300"}, {"measurement": "Amount of undissolved OBA MM1", "setting": "[2]; in GLYMO, RT mixing (MM1)", "value": "high"}, {"measurement": "Brightness MM1", "setting": "[2]; in GLYMO, RT mixing (MM1)", "value": "low"}, {"measurement": "Form a clear solution? Mixing Method 1", "setting": "[2]; in GLYMO, RT mixing (MM1)", "value": "no"}, {"measurement": "# of particles observed", "setting": "[2]; in GLYMO, naked eye under black light", "value": ">300"}, {"measurement": "Amount of undissolved optical brightener", "setting": "[2]; in GLYMO, room temperature", "value": "high"}, {"measurement": "Brightness", "setting": "[2]; in GLYMO, under black light", "value": "low"}, {"measurement": "# of particles observed MM2", "setting": "[3]", "value": "10-20"}, {"measurement": "Amount of undissolved OBA MM2", "setting": "[3]", "value": "Low"}, {"measurement": "Brightness MM2", "setting": "[3]", "value": "low"}, {"measurement": "Form a clear solution? Mixing Method 2", "setting": "[3]", "value": "No"}]}
{"smiles": "O=S(=O)(O)c1ccccc1C=Cc1ccc(-c2ccc(C=Cc3ccccc3S(=O)(=O)O)cc2)cc1", "note": "[Benetex ® OB-M1, benzenesulfonic acid, 2,2′-([1,1′-biphenyl]-4,4′-diyldi-2,1-ethenediyl)bis-]", "values": [{"measurement": "# of particles observed MM2", "setting": "[3]", "value": ">100"}, {"measurement": "Brightness MM2", "setting": "[3]", "value": "low"}, {"measurement": "Form a clear solution? Mixing Method 2", "setting": "[3]", "value": "no"}]}
